Experimental data from ChEMBL document CHEMBL3751819, “Navigating into the chemical space between MGCD0103 and SAHA: novel histone deacetylase inhibitors as a promising lead” (Medchemcomm, 2015).
Calls of active or inactive are those of the source. No cut-off for these calls is given here.

Columns and labels:
HeLa [1] = experiment: Induction of apoptosis in human HeLa cells assessed as viable cells at 2.5 uM after 48 hrs by annexin-V-FITC/propidium iodide staining based flow cytometry (reference value: 88.6%); format: functional
HeLa [2] = experiment: Induction of apoptosis in human HeLa cells assessed as necrotic cells at 5 uM after 48 hrs by annexin-V-FITC/propidium iodide staining based flow cytometry (reference value: 0.693%); format: functional
[3] = Half life in mouse plasma; format: ADME, cell-free
HeLa [4] = experiment: Induction of apoptosis in human HeLa cells assessed as late apoptotic cells at 5 uM after 48 hrs by annexin-V-FITC/propidium iodide staining based flow cytometry (reference value: 9.3%); format: functional
HeLa [5] = experiment: Induction of apoptosis in human HeLa cells assessed as late apoptotic cells at 2.5 uM after 48 hrs by annexin-V-FITC/propidium iodide staining based flow cytometry (reference value: 9.3%); format: functional
HeLa [6] = experiment: Induction of apoptosis in human HeLa cells assessed as early apoptotic cells at 1.25 uM after 48 hrs by annexin-V-FITC/propidium iodide staining based flow cytometry (reference value: 1.4%); format: functional
HeLa [7] = experiment: Induction of apoptosis in human HeLa cells assessed as viable cells at 1.25 uM after 48 hrs by annexin-V-FITC/propidium iodide staining based flow cytometry (reference value: 88.6%); format: functional
HeLa [8] = experiment: Induction of apoptosis in human HeLa cells assessed as early apoptotic cells at 2.5 uM after 48 hrs by annexin-V-FITC/propidium iodide staining based flow cytometry (reference value: 1.4%); format: functional
HeLa [9] = experiment: Induction of apoptosis in human HeLa cells assessed as viable cells at 5 uM after 48 hrs by annexin-V-FITC/propidium iodide staining based flow cytometry (reference value: 88.6%); format: functional
[10] = Half life in artificial intestinal fluid; format: ADME
HeLa [11] = experiment: Induction of apoptosis in human HeLa cells assessed as early apoptotic cells at 5 uM after 48 hrs by annexin-V-FITC/propidium iodide staining based flow cytometry (reference value: 1.4%); format: functional
HeLa [12] = experiment: Induction of apoptosis in human HeLa cells assessed as late apoptotic cells at 1.25 uM after 48 hrs by annexin-V-FITC/propidium iodide staining based flow cytometry (reference value: 9.3%); format: functional
HeLa [13] = experiment: Induction of apoptosis in human HeLa cells assessed as necrotic cells at 1.25 uM after 48 hrs by annexin-V-FITC/propidium iodide staining based flow cytometry (reference value: 0.693%); format: functional
HeLa [14] = experiment: Induction of apoptosis in human HeLa cells assessed as necrotic cells at 2.5 uM after 48 hrs by annexin-V-FITC/propidium iodide staining based flow cytometry (reference value: 0.693%); format: functional
[15] = Half life in mouse microsomes; format: ADME, Microsome
A549 [16] = experiment: Antiproliferative activity against human A549 cells assessed as reduction in cell viability after 24 hrs by MTT assay; format: functional, cell-based; settings: A549, 24 h
HepG2 [17] = experiment: Antiproliferative activity against human HepG2 cells assessed as reduction in cell viability after 48 hrs by MTT assay; format: functional, cell-based; settings: HepG2, 48 h
HeLa [18] = experiment: Antiproliferative activity against human HeLa cells assessed as reduction in cell viability after 72 hrs by MTT assay; format: functional, cell-based
[19] = Antiproliferative activity against human HCT116 cells assessed as reduction in cell viability after 72 hrs by MTT assay; format: functional, cell-based; settings: HCT-116, 72 h
A549 [20] = experiment: Antiproliferative activity against human A549 cells assessed as reduction in cell viability after 72 hrs by MTT assay; format: functional, cell-based; settings: A549, 72 h
HeLa [21] = experiment: Antiproliferative activity against human HeLa cells assessed as reduction in cell viability after 24 hrs by MTT assay; format: functional, cell-based
MCF7 [22] = experiment: Antiproliferative activity against human MCF7 cells assessed as reduction in cell viability after 48 hrs by MTT assay; format: functional, cell-based; settings: MCF7, 48 h
[23] = Elimination half life in po dosed patient plasma by HPLC/MS analysis; format: ADME, organism-based; settings: human, read-out: beta t1/2 (converted)
[24] = Half life in artificial gastric fluid; format: ADME
HepG2 [25] = experiment: Antiproliferative activity against human HepG2 cells assessed as reduction in cell viability after 72 hrs by MTT assay; format: functional, cell-based; settings: HepG2, 72 h
HeLa [26] = experiment: Antiproliferative activity against human HeLa cells assessed as reduction in cell viability after 48 hrs by MTT assay; format: functional, cell-based
HepG2 [27] = experiment: Antiproliferative activity against human HepG2 cells assessed as reduction in cell viability after 24 hrs by MTT assay; format: functional, cell-based; settings: HepG2, 24 h
A549 [28] = experiment: Antiproliferative activity against human A549 cells assessed as reduction in cell viability after 48 hrs by MTT assay; format: functional, cell-based; settings: A549, 48 h
[29] = Antiproliferative activity against human HCT116 cells assessed as reduction in cell viability after 24 hrs by MTT assay; format: functional, cell-based; settings: HCT-116, 24 h
MCF7 [30] = experiment: Antiproliferative activity against human MCF7 cells assessed as reduction in cell viability after 24 hrs by MTT assay; format: functional, cell-based; settings: MCF7, 24 h
MCF7 [31] = experiment: Antiproliferative activity against human MCF7 cells assessed as reduction in cell viability after 72 hrs by MTT assay; format: functional, cell-based; settings: MCF7, 72 h
[32] = Antiproliferative activity against human HCT116 cells assessed as reduction in cell viability after 48 hrs by MTT assay; format: functional, cell-based; settings: HCT-116, 48 h
[33] = molecular target: T1, Protein deacetylase HDAC6 (Homo sapiens) (UniProt Q9UBN7); experiment: Inhibition of HDAC6 in human A549 cells assessed as increase in acetylated tubulin expression at 5 uM incubated for 12 hrs by DAPI staining based immunofluorescence microscopy; format: cell-based
T1 sequence (whole entry): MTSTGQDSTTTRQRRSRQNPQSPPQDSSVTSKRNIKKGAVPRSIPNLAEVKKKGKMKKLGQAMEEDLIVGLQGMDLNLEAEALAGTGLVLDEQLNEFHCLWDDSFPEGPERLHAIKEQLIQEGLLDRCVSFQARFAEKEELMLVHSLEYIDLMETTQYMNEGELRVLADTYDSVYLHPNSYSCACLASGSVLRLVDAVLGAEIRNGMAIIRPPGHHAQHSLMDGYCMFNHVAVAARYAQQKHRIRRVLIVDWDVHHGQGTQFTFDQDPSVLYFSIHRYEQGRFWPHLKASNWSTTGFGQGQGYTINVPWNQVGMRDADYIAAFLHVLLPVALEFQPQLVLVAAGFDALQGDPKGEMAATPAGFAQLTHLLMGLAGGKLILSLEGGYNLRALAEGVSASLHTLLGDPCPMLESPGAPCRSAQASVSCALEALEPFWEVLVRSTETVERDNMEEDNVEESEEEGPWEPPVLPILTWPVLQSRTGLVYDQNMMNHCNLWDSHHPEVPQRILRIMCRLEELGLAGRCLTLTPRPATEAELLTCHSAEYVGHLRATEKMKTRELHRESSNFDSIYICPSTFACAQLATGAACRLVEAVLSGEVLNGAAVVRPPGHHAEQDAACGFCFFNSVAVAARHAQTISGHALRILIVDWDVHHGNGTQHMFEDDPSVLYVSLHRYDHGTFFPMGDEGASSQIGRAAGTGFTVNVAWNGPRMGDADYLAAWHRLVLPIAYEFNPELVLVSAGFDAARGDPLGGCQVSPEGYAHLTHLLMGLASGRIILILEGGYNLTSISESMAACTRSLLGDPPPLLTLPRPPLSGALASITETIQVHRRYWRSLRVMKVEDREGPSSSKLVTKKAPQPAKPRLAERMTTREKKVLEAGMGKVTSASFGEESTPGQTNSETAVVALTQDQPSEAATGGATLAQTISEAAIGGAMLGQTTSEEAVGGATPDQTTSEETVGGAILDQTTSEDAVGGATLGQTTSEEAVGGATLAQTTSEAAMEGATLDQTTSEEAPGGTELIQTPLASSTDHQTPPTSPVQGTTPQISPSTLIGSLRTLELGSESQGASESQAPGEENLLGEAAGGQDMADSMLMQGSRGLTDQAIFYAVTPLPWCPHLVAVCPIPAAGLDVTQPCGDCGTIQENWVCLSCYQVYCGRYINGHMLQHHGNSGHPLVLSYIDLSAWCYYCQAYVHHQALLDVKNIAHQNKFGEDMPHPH

[34] = Homo sapiens, HeLa, 48 h, read-out: Activity

O=C(CCCCCCC(=O)Nc1ccccc1)NO [VORINOSTAT]
Activity (HeLa [1]): 77.4% | Activity (HeLa [2]): 0.61% | half-life [3]: 3 h | Activity (HeLa [4]): 7.6% | Activity (HeLa [5]): 15.1% | Activity (HeLa [6]): 4.1% | Activity (HeLa [7]): 85.1% | Activity (HeLa [8]): 6.56% | Activity (HeLa [9]): 83.9% | half-life [10]: > 24 h | Activity (HeLa [11]): 7.84% | Activity (HeLa [12]): 10.2% | Activity (HeLa [13]): 0.654% | Activity (HeLa [14]): 0.957% | half-life [15]: 1.33 h

Nc1ccccc1NC(=O)c1ccc(CNc2nccc(-c3cccnc3)n2)cc1 [MOCETINOSTAT]
viability at 2.5 µM (HeLa [1]; [34]): 84.5% | IC50 (A549 [16]): 59.9 µM | Activity (HeLa [2]): 1.33% | IC50 (HepG2 [17]): 4.05 µM | half-life [3]: 10 h | Activity (HeLa [4]): 11.6% | Activity (HeLa [5]): 5.98% | IC50 (HeLa [18]): 3.42 µM | IC50 [19]: 3.51 µM | Activity (HeLa [6]): 3.9% | IC50 (A549 [20]): 11.9 µM | IC50 (HeLa [21]): 43.8 µM | viability at 1.25 µM (HeLa [7]; [34]): 87.1% | IC50 (MCF7 [22]): 56.8 µM | half-life [23]: 9 h | half-life [24]: > 24 h | IC50 (HepG2 [25]): 4.25 µM | Activity (HeLa [8]): 9.13% | viability at 5 µM (HeLa [9]; [34]): 74.6% | IC50 (HeLa [26]): 3.32 µM | half-life [10]: > 24 h | IC50 (HepG2 [27]): 5.79 µM | IC50 (A549 [28]): 14.6 µM | IC50 [29]: 29.7 µM | Activity (HeLa [11]): 12.5% | IC50 (MCF7 [30]): 84.2 µM | Activity (HeLa [12]): 8.23% | IC50 (MCF7 [31]): 2.49 µM | Activity (HeLa [13]): 0.78% | Activity (HeLa [14]): 0.437% | IC50 [32]: 1.24 µM | inhibition [33]: inactive | half-life [15]: 2.62 h
